Laboratory results as given in PubChem BioAssay (NCI).
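Briefly, cells in 96-well plates were exposed to five compound concentrations for 48 h, and endpoints were estimated by linear interpolation. GI50 = concentration required for 50% inhibition of growth. TGI: total growth inhibition.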

Assays:
Test in all cases: NCI tumour cell line growth inhibition, 48 h
CAKI-1 renal = test system: CAKI-1 renal
BT-549 breast = test system: BT-549 breast
SR leukemia = test system: SR leukemia
NCI/ADR-RES ovarian = test system: NCI/ADR-RES ovarian
M14 melanoma = test system: M14 melanoma
U251 CNS = test system: U251 CNS
ACHN renal = test system: ACHN renal
TK-10 renal = test system: TK-10 renal
SF-268 CNS = test system: SF-268 CNS
A498 renal = test system: A498 renal

SMILES | TGI (CAKI-1 renal) [µM] | TGI (BT-549 breast) [µM] | TGI (SR leukemia) [µM] | TGI (NCI/ADR-RES ovarian) [µM] | TGI (M14 melanoma) [µM] | TGI (U251 CNS) [µM] | TGI (ACHN renal) [µM] | TGI (TK-10 renal) [µM] | TGI (SF-268 CNS) [µM] | TGI (A498 renal) [µM] | GI50 (CAKI-1 renal) [µM] | GI50 (SR leukemia) [µM] | GI50 (M14 melanoma) [µM] | GI50 (U251 CNS) [µM] | GI50 (ACHN renal) [µM] | GI50 (TK-10 renal) [µM] | GI50 (SF-268 CNS) [µM] | GI50 (BT-549 breast) [µM] | GI50 (NCI/ADR-RES ovarian) [µM] | GI50 (A498 renal) [µM]
OCC1OC(OCC(O)C(O)C(O)C(/C=N/Nc2ccccc2)=N/Nc2ccccc2)C(O)C(O)C1O (configuration not stated) | > 100 | > 100 | > 100 | > 100 | > 100 | > 100 | > 100 | > 100 | > 100 |  |  |  |  |  |  |  |  |  |  | 
CC(=O)O[C@]1(C)OC(=O)[C@@H](C)N1[N+](=O)[O-] |  |  | > 100 |  | > 100 | > 100 | > 100 | > 100 |  | > 100 |  |  |  |  |  |  |  |  |  | 
CC/C(=C(/CC)c1ccc([O-])cc1)c1ccc([O-])cc1.CC/C(=C(\CC)c1ccc([O-])cc1)c1ccc([O-])cc1.O=C([CH-]C(=O)c1ccccc1)c1ccccc1.O=C([CH-]C(=O)c1ccccc1)c1ccccc1.O=C([CH-]C(=O)c1ccccc1)c1ccccc1.O=C([CH-]C(=O)c1ccccc1)c1ccccc1.[Ti+4].[Ti+4] | 58.5 |  | > 100 |  | 78.8 | 82 | > 100 | > 100 | > 100 |  | 23.5 | 58.5 | 20.7 | 24.9 | 35.2 | 45.2 | 35.8 |  |  | 
COC(=O)c1ccc(NC(=O)Nc2ccc3oc(=O)c4ccccc4c3c2)cc1 | > 100 | > 100 | > 100 | > 100 | > 100 | > 100 | > 100 | > 100 | 71.2 |  | 70.9 | 10.9 | 31.8 | 30.9 | 29.5 | > 100 | 26.2 | 28.1 | 41.7 | 
O=C1OCCC1C(O)C1c2ccccc2-c2ccccc21 (configuration not stated) | > 100 |  | > 100 |  | > 100 | > 100 | > 100 | > 100 | > 100 | > 100 |  |  |  |  |  |  |  |  |  | 
C[C@]12CCc3nonc3C1CC[C@@H]1C2CC[C@]2(C)NC(=O)CCC12 (some centres not stated) | > 100 |  |  |  | > 100 | > 100 | > 100 | > 100 | > 100 | > 100 |  |  |  |  |  |  |  |  |  | 
C1C[S][Ge]2([S]CCO1)[S]CCOCC[S]2 | > 100 |  | > 100 |  | > 100 |  | > 100 |  | > 100 | > 100 | > 100 | > 100 | > 100 |  | > 100 |  | > 100 |  |  | > 100
Cc1cc(=O)[nH]o1 | > 100 | > 100 |  | > 100 | > 100 | > 100 | > 100 | > 100 | > 100 |  |  |  |  |  |  |  |  |  |  | 
Cn1nnnc1N/N=C/c1ccccc1 | > 10 |  | > 10 | > 10 | > 10 | > 10 | > 10 | > 10 | > 10 |  |  |  |  |  |  |  |  |  |  | 
COc1ccc(C(=O)C(C(=O)C(=O)Nc2ccc(Cl)c(Cl)c2)c2ccc(OC)cc2)cc1 (configuration not stated) | > 100 |  |  |  | > 100 | > 100 | > 100 | > 100 | > 100 | > 100 |  |  |  |  |  |  |  |  |  | 
COc1c(NC(C)=O)cc(C)cc1NC(C)=O | > 100 |  | > 100 |  | > 100 | > 100 | > 100 | > 100 | > 100 | > 100 |  |  |  |  |  |  |  |  |  | 
Cc1c(C(=O)C/C(=N/NC(=O)C[n+]2ccccc2)C(=O)Nc2ccccc2)[n+](=O)c2ccccc2n1O | > 100 |  | > 100 |  | > 100 | > 100 | > 100 | > 100 | > 100 | > 100 |  |  |  |  |  |  |  |  |  | 
O=c1cc(N2CCNCC2)oc2c(-c3ccccc3)cccc12 | > 100 | > 100 |  | > 100 | 29.1 | > 100 | > 100 | > 100 | > 100 | 74.8 | 26.8 |  | 15.6 | 35.4 | 34.1 | 27.9 | 46.3 | > 100 | > 100 | 25
C/C1=C/C2=CC(C)C[C@@H]2C(=O)[C@]2(C)C(=O)CC(C)(C)[C@H]2CC1=O (some centres not stated) | > 50 | > 50 |  | > 50 | > 50 | > 50 | > 50 | > 50 | > 50 | > 50 |  |  |  |  |  |  |  |  |  | 
CCOc1cc2c(cc1O)/C(=N\O)C[C@@H]1[C@@H]2CC[C@]2(C)[C@@H](O)CC[C@@H]12 |  | 22.5 |  | > 100 | > 100 | > 100 | > 49.5 | > 100 |  | > 100 |  |  | 0.041 | 0.0324 | 0.024 |  | 0.0884 | 0.0864 |  | 0.604
C=CC[P+](c1ccccc1)(c1ccccc1)c1ccccc1 | > 100 | 94.5 | > 100 | > 100 | > 100 | > 100 | > 100 |  | > 100 | 63 | 52.2 | 1.45 | 8.09 | 3.44 | > 100 |  | 5.46 | 4.05 | > 100 | 7.09
CC(C)(C)CC(C)(C)c1cc2c(O)c(c1)Cc1cc(C(C)(C)CC(C)(C)C)cc(c1O)Cc1cc(C(C)(C)CC(C)(C)C)cc(c1O)Cc1cc(C(C)(C)CC(C)(C)C)cc(c1O)Cc1cc(C(C)(C)CC(C)(C)C)cc(c1O)Cc1cc(C(C)(C)CC(C)(C)C)cc(c1O)C2 |  |  |  |  | > 100 | > 100 | > 100 | > 100 | > 100 |  |  |  |  |  |  |  |  |  |  | 
Cn1c(O)c(C(/C=C/c2ccccc2)=NCCN=C(/C=C/c2ccccc2)c2c(O)n(C)c(=O)n(C)c2=O)c(=O)n(C)c1=O | > 50 | 29.5 |  | > 50 | > 50 | > 50 | > 50 | > 50 | > 50 | 40.7 | 19.9 |  | 15 | 18.3 | 21.2 | 23.7 | 15.1 | 10.2 | 15.3 | 16.6
CN=C(NC#N)NCCSCc1nc[nH]c1C | > 100 |  | > 100 | > 100 | > 100 | > 100 | > 100 |  | > 100 | > 100 |  |  |  |  |  |  |  |  |  | 
